The values below come from ChEMBL document CHEMBL1127607, “Genetically evolved receptor models: a computational approach to construction of receptor models” (J Med Chem, 1994).

SMILES strings stand for the structures.

For this test, the species on record is Homo sapiens. Put plainly: Potency based on concentration of sweetener which matches the sweetness recognition threshold of sucrose (~2%). Type of test: functional, organism-based.
As for `C[C@@H](N/C(=N\CC(=O)O)Nc1cc(Cl)cc(Cl)c1)c1ccccc1`, the Log potency was found to be 5.08.

`CC(NC(=O)C(N)CC(=O)O)C(=O)NC1CCCC1` (configuration not stated) yielded a Log potency of 1.7.

For the compound `N#Cc1ccc(NC(=O)NC(CC(=O)O)c2cccnc2)cc1` (configuration not stated), the Log potency turned out to be 4.3.

`O=C(O)CCNC(=O)Nc1ccc([N+](=O)[O-])cc1`: the Log potency stood at 2.85.

`CC12CCC(C1)C(C)(C)C2OC(=O)C(NC(=O)C(N)CC(=O)O)c1cccs1` (configuration not stated) registered a Log potency of 3.38.

As for `CC12CCC(C1)C(C)(C)C2OC(=O)C(NC(=O)C(N)CC(=O)O)c1ccco1` (configuration not stated), the Log potency is 4.22.

`N#Cc1ccc(N/C(S)=N/CCC(=O)O)cc1` yielded a Log potency of 3.32.

For the compound `N#Cc1ccc(N/C(=N/CC(=O)O)NS(=O)(=O)c2ccccc2)cc1`, the Log potency was 4.48.

Consider `N#Cc1ccc(NC(=O)NC(CC(=O)O)c2ccccc2)cc1` (configuration not stated), for which the Log potency turned out to be 4.

For `COC(=O)[C@H](Cc1ccccc1)NC(=O)[C@@H](N)CC(=O)O`, the Log potency amounted to 2.26.

The compound `N#Cc1ccc(NC(=O)NCCC(=O)O)cc1` had a Log potency of 2.65.

The compound `N#Cc1ccc(N/C(=N/CC(=O)O)NC2CCCCCCC2)cc1` displayed a Log potency of 5.23.

The compound `CC(NC(=O)C(N)CC(=O)O)C(=O)NC1C(C)(C)CCC1(C)C` (configuration not stated) displayed a Log potency of 2.9.

`N#CN/C(=N\CCC(=O)O)Nc1ccc(C#N)cc1` registered a Log potency of 2.95.

`N#Cc1ccc(NC(=O)NC(CC(=O)O)c2ccncc2)cc1` (configuration not stated) showed a Log potency of 3.3.

The compound `N#Cc1ccc(N/C(=N/CC(=O)O)NCc2ccccc2)cc1` gave a Log potency of 4.48.

Compound `COC(=O)C(Cc1ccccc1)NC(=O)C(CC(=O)O)/N=C(\S)Nc1ccc(C#N)cc1` (configuration not stated) yielded a Log potency of 4.7.

With `CC(NC(=O)C(N)CC(=O)O)C(=O)NC1C(C)(C)SC1(C)C` (configuration not stated), the Log potency amounted to 3.3.

In turn, `C[C@@H](N/C(=N\CC(=O)O)Nc1ccc(C#N)cc1)c1ccccc1` gave a Log potency of 4.45.

Regarding `N#CN/C(=N\CC(=O)O)Nc1ccc(C#N)cc1`, the Log potency amounted to 3.85.

In turn, `COC(=O)C(Cc1ccccc1)NC(=O)C(CC(=O)O)NC(=O)Nc1ccc(C#N)cc1` (configuration not stated) showed a Log potency of 4.

`O=C(O)C/N=C(\NCc1ccccc1)Nc1cc(Cl)cc(Cl)c1` showed a Log potency of 4.9.
